In ChEMBL document CHEMBL3822381, “Design, synthesis, and evaluation of Trolox-conjugated amyloid-β C-terminal peptides for therapeutic intervention in an in vitro model of Alzheimer's disease” (Bioorg Med Chem, 2016) one finds inhibition and Activity data, which are given here for 13 compounds.

The source made the active and inactive calls. No cut-off for these calls is given here. Residues, ends and D or L forms follow the SMILES beside them. *: point of attachment. Trolox = Cc1c(C)c2c(c(C)c1O)CCC(C)(C(=O)*)O2

For data set [1], the target named is Amyloid-beta precursor protein (Homo sapiens) (UniProt P05067). The data set can be described thus: Inhibition of amyloid beta (1 to 42) (unknown origin) aggregation at 80 uM by ThT-fluorescence assay relative to control.
Sequence of Amyloid-beta precursor protein (Homo sapiens) (P05067 whole entry): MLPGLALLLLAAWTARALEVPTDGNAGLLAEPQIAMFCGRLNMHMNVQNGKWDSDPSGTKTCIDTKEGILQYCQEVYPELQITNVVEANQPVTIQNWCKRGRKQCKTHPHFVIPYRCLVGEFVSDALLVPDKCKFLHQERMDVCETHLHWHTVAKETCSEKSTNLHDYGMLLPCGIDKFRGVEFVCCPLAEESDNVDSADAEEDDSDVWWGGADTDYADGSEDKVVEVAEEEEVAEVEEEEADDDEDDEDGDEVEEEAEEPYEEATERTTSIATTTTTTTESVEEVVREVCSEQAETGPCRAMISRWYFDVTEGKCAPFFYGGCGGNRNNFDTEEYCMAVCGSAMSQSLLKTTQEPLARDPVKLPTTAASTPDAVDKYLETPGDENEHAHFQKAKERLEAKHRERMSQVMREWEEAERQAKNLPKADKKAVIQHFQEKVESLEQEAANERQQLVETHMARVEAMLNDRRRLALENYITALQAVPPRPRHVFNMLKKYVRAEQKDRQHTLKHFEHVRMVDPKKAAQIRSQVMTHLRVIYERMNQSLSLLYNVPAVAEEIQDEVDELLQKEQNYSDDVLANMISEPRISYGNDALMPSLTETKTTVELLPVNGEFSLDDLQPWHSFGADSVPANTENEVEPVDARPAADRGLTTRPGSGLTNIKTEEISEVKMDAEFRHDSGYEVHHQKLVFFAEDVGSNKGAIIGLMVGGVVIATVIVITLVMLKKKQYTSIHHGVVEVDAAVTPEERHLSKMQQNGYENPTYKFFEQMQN
In data set [2] the test system is SH-SY5Y. The experiment in a line: Neuroprotective activity against amyloid beta (1 to 42)-induced neurotoxicity in human SH-SY5Y cells assessed as increase in cell viability at 40 uM measured after 48 hrs by WST-8 assay. The class given is functional, cell-based. In general terms: Formazan colour is commonly taken as a measure of viable cells.
For data set [3], the system named is SH-SY5Y. The data set can be described thus: Neuroprotective activity against amyloid beta (1 to 42)-induced neurotoxicity in human SH-SY5Y cells assessed as increase in cell viability at 20 uM measured after 48 hrs by WST-8 assay. The class given is functional, cell-based.
The test system of data set [4] is SH-SY5Y. The data set can be described thus: Cytotoxicity against human SH-SY5Y cells assessed as cell viability up to 40 uM measured after 48 hrs by WST-8 assay. The class given is cell-based.
Data set [5] concerns SH-SY5Y. The experiment in a line: Neuroprotective activity against amyloid beta (1 to 42)-induced neurotoxicity in human SH-SY5Y cells assessed as increase in cell viability at 5 to 40 uM measured after 48 hrs by WST-8 assay. The class given is functional, cell-based.
The subject of data set [6] is SH-SY5Y. The data set can be described thus: Antioxidant activity against human SH-SY5Y cells assessed as amyloid beta (1 to 42)-induced ROS production preincubated for 1 day prior H2O2 treatment at 1.25 uM by DCFH-DA-based fluorescence analysis relative to control. The class given is functional.
Data set [7] deals with SH-SY5Y. The data set can be described thus: Antioxidant activity in human SH-SY5Y cells assessed as inhibition of H2O2-induced ROS production preincubated for 1 day prior H2O2 treatment at 25 uM by DCFH-DA-based fluorescence analysis. The class given is functional, cell-based.
For data set [8], the system named is SH-SY5Y. The experiment in a line: Neuroprotective activity against amyloid beta (1 to 42)-induced neurotoxicity in human SH-SY5Y cells assessed as increase in cell viability measured after 48 hrs by WST-8 assay. The class given is functional, cell-based.

Take `Cc1c(C)c2c(c(C)c1O)CCC(C)(C(=O)N[C@H](C(=O)O)C(C)C)O2` (stereo partly drawn): the inhibition result in data set [1] was “inactive”. On the same count and under the same terms, for `CC[C@H](C)[C@H](NC(=O)[C@@H](NC(=O)[C@@H](NC(=O)CNC(=O)CNC(=O)[C@@H](NC(=O)[C@H](CCSC)NC(=O)[C@H](CC(C)C)NC(=O)C1(C)CCc2c(C)c(O)c(C)c(C)c2O1)C(C)C)C(C)C)C(C)C)C(=O)N[C@@H](C)C(=O)O` (stereo partly drawn) the value was 39.5%.

`CC[C@H](C)[C@H](NC(=O)[C@@H](NC(=O)[C@@H](NC(=O)CNC(=O)CNC(=O)[C@@H](NC(=O)C1(C)CCc2c(C)c(O)c(C)c(C)c2O1)C(C)C)C(C)C)C(C)C)C(=O)N[C@@H](C)C(=O)N[C@H](C(=O)O)[C@@H](C)O` (stereo partly drawn) (Trolox-VGGVVIAT-OH): the outcome in the data set on SH-SY5Y [2] was inactive. For the same compound, the outcome with SH-SY5Y [3] was Active. The Activity result with SH-SY5Y [4] is listed as “Non-toxic”. Further, the inhibition in data set [1] stood at 17.3%. With `Cc1c(C)c2c(c(C)c1O)CCC(C)(C(=O)N[C@H](C(=O)NCC(=O)NCC(=O)N[C@H](C(=O)N[C@H](C(=O)O)C(C)C)C(C)C)C(C)C)O2` (stereo partly drawn) (Trolox-VGGVV-OH), the result with SH-SY5Y [5] was inactive. The inhibition result in data set [1] was “inactive”. `Cc1c(C)c2c(c(C)c1O)CCC(C)(C(=O)O)O2` (stereo not drawn) [TROLOX]: the Activity with SH-SY5Y [6] was found to be 23.6%. For the same compound, the inhibition entry in the data set on SH-SY5Y [7] was “Active”. In data set [1], `CC[C@H](C)[C@H](NC(=O)[C@@H](NC(=O)C1(C)CCc2c(C)c(O)c(C)c(C)c2O1)C(C)C)C(=O)N[C@@H](C)C(=O)N[C@H](C(=O)O)[C@@H](C)O` (stereo partly drawn) (Trolox-VIAT-OH) came in with an inhibition of 6.6%. In the case of `CC[C@H](C)[C@H](NC(=O)[C@@H](NC(=O)[C@@H](NC(=O)CNC(=O)CNC(=O)[C@@H](NC(=O)C1(C)CCc2c(C)c(O)c(C)c(C)c2O1)C(C)C)C(C)C)C(C)C)C(=O)N[C@@H](C)C(=O)O` (stereo partly drawn) (Trolox-VGGVVIA-OH), the Activity is 37.6% with SH-SY5Y [6], “Dose-dependent effect” in the data set with SH-SY5Y [8] and “Non-toxic” with SH-SY5Y [4]. Also, the result with SH-SY5Y [2] was Active. Besides, the inhibition in data set [1] is 17.7%. In addition, in the data set on SH-SY5Y [7], the inhibition result is “Active”.

Regarding `CC[C@H](C)[C@H](NC(=O)[C@@H](NC(=O)[C@@H](NC(=O)CNC(=O)CNC(=O)[C@@H](NC(=O)[C@H](CCSC)NC(=O)[C@H](CC(C)C)NC(=O)C1(C)CCc2c(C)c(O)c(C)c(C)c2O1)C(C)C)C(C)C)C(C)C)C(=O)N[C@@H](C)C(=O)N[C@H](C(=O)O)[C@@H](C)O` (stereo partly drawn) (Trolox-LMVGGVVIAT-OH), in data set [1], the inhibition was 40.4%. In the case of `CSCC[C@H](NC(=O)[C@H](CC(C)C)NC(=O)C1(C)CCc2c(C)c(O)c(C)c(C)c2O1)C(=O)N[C@H](C(=O)NCC(=O)NCC(=O)N[C@H](C(=O)N[C@H](C(=O)O)C(C)C)C(C)C)C(C)C` (stereo partly drawn) (Trolox-LMVGGVV-OH), the inhibition result in data set [1] is “inactive”.

Turning to `CC[C@H](C)[C@H](NC(=O)[C@@H](NC(=O)[C@@H](NC(=O)CNC(=O)C1(C)CCc2c(C)c(O)c(C)c(C)c2O1)C(C)C)C(C)C)C(=O)N[C@@H](C)C(=O)N[C@H](C(=O)O)[C@@H](C)O` (stereo partly drawn) (Trolox-GVVIAT-OH), the inhibition in data set [1] stood at 5%.

For the compound `CC[C@H](C)[C@H](NC(=O)[C@@H](NC(=O)C1(C)CCc2c(C)c(O)c(C)c(C)c2O1)C(C)C)C(=O)N[C@@H](C)C(=O)O` (stereo partly drawn), the inhibition in data set [1] came out at 2.8%.

`CC[C@H](C)[C@H](NC(=O)[C@@H](NC(=O)[C@@H](NC(=O)CNC(=O)C1(C)CCc2c(C)c(O)c(C)c(C)c2O1)C(C)C)C(C)C)C(=O)N[C@@H](C)C(=O)O` (stereo partly drawn) (Trolox-GVVIA-OH) had an inhibition in data set [1] of 4.7%.

With `Cc1c(C)c2c(c(C)c1O)CCC(C)(C(=O)NCC(=O)N[C@H](C(=O)N[C@H](C(=O)O)C(C)C)C(C)C)O2` (stereo partly drawn), the inhibition entry in data set [1] is “inactive”.

Broadly, the inhibition is the share of the control response that was lost under treatment.
